Data published in patent US20230142366A1, “NOVEL POLYMORPHIC FORMS OF METOPIMAZINE” (Neurogastrx, Inc., priority 2020, published 2023).
Counter-ions that a name gives are not always drawn. Marks after values point to notes of the source that are not given here.

How the values were obtained:
[1] = Clinical comparative pharmacokinetic study, 3-period cross-over, single oral doses, plasma samples; assay type: in vivo, human
Experimental: A clinical comparative pharmacokinetic study was performed to understand the pharmacokinetic profile of metopimazine mesylate Crystal Form A in comparison to the free base of metopimazine. This study was as a 3-period, cross-over design with 3 administrations of single doses: oral formulation of metopimazine mesylate Crystal Form A fasting, oral formulation of metopimazine mesylate Crystal Form A after a high-fat breakfast, and oral formulation of metopimazine free base fasting, with a wash-out period of 48 hours between each administration. Fifteen subjects were enrolled and received each of the 3 treatment. Plasma samples from each subject were analyzed for various pharmacokinetic parameters. Mixed model repeated measures (MMRM) analysis was performed on each sample.
The second objective of this study was to compare the pharmacokinetics of metopimazine mesylate Crystal Form A administered as an oral administration of a single dose of 15 mg orally in 15 human subjects either in a fasted state or after a high fat breakfast. Plasma samples from each subject were analyzed for various pharmacokinetic parameters. […] Both Cmax and AUC are well within the 90% confidence interval.

[2] = before and after a high fat breakfast; cited from earlier work
[3] = 15 mg single oral dose, n = 15, fasted
[4] = 90% confidence interval of ratio fasted vs fed
[5] = 90% confidence interval of ratio fasted vs fed, marked bioequivalence
[6] = single dose of 15 mg orally, 15 human subjects

Tmax CV % [1, 3]	Tmax Max [1, 3]	Tmax Median [1, 3]	Tmax Min [1, 3]	Tmax Mean ([1]; 15 mg single oral dose, n = 15, fasted, plasma)	Change in AUC when administered with food ([1]; 15 mg oral, fed vs fasted)	Reduction in Cmax when administered with food ([1]; 15 mg oral, fed vs fasted)	AUC0-inf GLSM Ratio fasted vs fed (%) ([1]; 15 mg, n = 15)	Cmax GLSM Ratio fasted vs fed (%) ([1]; 15 mg, n = 15)	Cmax ratio Lower CI % [1, 4]	Cmax ratio Upper CI % [1, 4]	AUC0-inf ratio Lower CI % [1, 5]	AUC0-inf ratio Upper CI % [1, 5]	Geometric mean difference in AUC, high fat breakfast vs fasted [1, 6]	Geometric mean difference in Cmax, high fat breakfast vs fasted [1, 6]	SMILES	Reduction in AUC (food effect) [2]	Reduction in Cmax (food effect) [2]	Variance of Tmax values compared with metopimazine free base ([1]; 15 mg oral, fasted, MMRM analysis)
77.33%	4.00 h	1.00 h	0.50 h	1.27 h	–	–	–	–	–	–	–	–	–	–	CS(=O)(=O)c1ccc2c(c1)N(CCCN1CCC(C(N)=O)CC1)c1ccccc1S2 [Metopimazine free base, 1-(3-(2-(methylsulfonyl)-10H-phenothiazin-10-yl)propyl)piperidine-4-carboxamide, reference compound]	23%	58%	–
34.25%	1.50 h	–	0.50 h	–	no notable change in AUC	approximately 15%	93.63%	84.07%	63.82%	110.75%	86.00* %	101.93* %	not statistical difference	slightly but significantly lower	CS(=O)(=O)c1ccc2c(c1)N(CCCN1CCC(C(N)=O)CC1)c1ccccc1S2 [Metopimazine mesylate Crystal Form A, 1-(3-(2-(methylsulfonyl)-10H-phenothiazin-10-yl)propyl)piperidine-4-carboxamide methanesulfonic acid]	–	–	statistically significantly lower variance
